Experimental data taken from US4145444A, “Anti-inflammatory agent of benzoyl derivative” (priority 1977, dated 1979).

The compounds below were run on platelet (assay: Blood platelet aggregation inhibiting effect (collagen-induced)). Conditions: Oryctolagus cuniculus, Platelet; 10^-4 mole, collagen inducer, rabbit PRP; read-out: Blood platelet agg. inh.: percentage inhibition of platelet aggregation.
Assay type: cell-based, rabbits
Text: Male rabbits (Japan original white strain 3.3 to 3.6 kg) were anesthetized with Thiopental sodium and blood was sampled from the carotid artery.

| SMILES | inhibition at 100 µM [%] |
| --- | --- |
| Cc1ccc(C(=O)Cc2ccccc2)cc1 [compound 48] | 20.5 |
| CCCc1ccc(C(=O)Cc2ccccc2)cc1 [compound 49] | 28.5 |
| CCCCCCCCCCc1ccc(C(=O)Cc2ccccc2)cc1 [compound 50] | 8.7 |
| CCCCCCCCCCCc1ccc(C(=O)Cc2ccccc2)cc1 [compound 51] | 9.5 |
| CCCCCCCCCCCCc1ccc(C(=O)Cc2ccccc2)cc1 [compound 52] | 6.8 |
| O=C(C(=O)c1ccccc1)c1ccccc1 [compound 53] | 10.1 |
| Cc1ccc(C(=O)C(=O)c2ccccc2)cc1 [compound 54] | 15.4 |
| CCc1ccc(C(=O)C(=O)c2ccccc2)cc1 [compound 55] | 23.3 |
| CCCCCCc1ccc(C(=O)C(=O)c2ccccc2)cc1 [compound 56] | 20.3 |
| COc1ccc(C(=O)Cc2ccccc2)cc1 [compound 57] | 12.5 |
| CCCOc1ccc(C(=O)Cc2ccccc2)cc1 [compound 58] | 20.1 |
| CCCCCOc1ccc(C(=O)Cc2ccccc2)cc1 [compound 59] | 25.6 |
| COc1ccc(C(=O)Cc2ccc(Cl)cc2)cc1 [compound 60] | 4 |
| CCCCOc1ccc(C(=O)Cc2ccc(Cl)cc2)cc1 [compound 61] | 15.8 |
| CCCCCCOc1ccc(C(=O)Cc2ccc(Cl)cc2)cc1 [compound 62] | 12.3 |
| CCCc1ccc(C(=O)c2ccc(Cl)cc2)cc1 [compound 63] | 15.6 |
| CCCCc1ccc(C(=O)c2ccc(Cl)cc2)cc1 [compound 64] | 28.5 |
| Cc1ccc(C(=O)c2ccccc2)cc1 [compound 65] | 21 |
| CCc1ccc(C(=O)c2ccccc2)cc1 [compound 66] | 20.7 |
| CC(C)Cc1ccc(C(=O)c2ccccc2)cc1 [compound 67] | 18.5 |
| CCCCCCCCCCc1ccc(C(=O)c2ccccc2)cc1 [compound 68] | 16.5 |
| CCCCCCCCCCCCc1ccc(C(=O)c2ccccc2)cc1 [compound 69] | 13.5 |
| CCCCCCCCCc1ccc(C(=O)c2ccccc2)cc1 [compound 70] | 17.2 |
| CCCCCCCCCCCc1ccc(C(=O)c2ccccc2)cc1 [compound 71] | 19.5 |
| Cc1ccc(C(=O)c2ccccc2)cc1C [compound 72] | 28.7 |
| COc1ccc(C(=O)c2ccccc2)c(OC)c1 [compound 74] | 18.5 |
| COc1ccc(OC)c(C(=O)c2ccccc2)c1 [compound 75] | 30.7 |
| COc1cc(OC)c(C(=O)c2ccccc2)c(OC)c1 [compound 76] | 16.2 |

These compounds were tested on hind paws of male rats (assay: Anti-inflammatory effect: acute carragheenin edema method). Conditions: Rattus norvegicus, po, read-out: Anti-inf.: edema inhibition rate.
Assay type: in vivo
Procedure: The edema was induced by subcutaneous injection of 1% carragheenin suspension in saline to the hind paws of male rats weighting 150 to 180 g. Each sample was orally given at the dosage of 100 mg/kg just before the inoculation of carragheenin.

| SMILES | inhibition in vivo at 100 mg/kg [%] |
| --- | --- |
| O=C(C(=O)c1ccccc1)c1ccccc1 [compound 53] | 20.3 |
| Cc1ccc(C(=O)C(=O)c2ccccc2)cc1 [compound 54] | 25.5 |

Same assay, conditions: Rattus norvegicus; 100 mg/kg oral, carragheenin edema, male rats (Table 2); read-out: Anti-inf.: edema inhibition rate

| SMILES | inhibition in vivo at 100 mg/kg [%] |
| --- | --- |
| Cc1ccc(C(=O)Cc2ccccc2)cc1 [compound 48] | 26 |
| CCCc1ccc(C(=O)Cc2ccccc2)cc1 [compound 49] | 10.7 |
| CCCCCCCCCCc1ccc(C(=O)Cc2ccccc2)cc1 [compound 50] | 25.5 |
| CCCCCCCCCCCc1ccc(C(=O)Cc2ccccc2)cc1 [compound 51] | 24.6 |
| CCCCCCCCCCCCc1ccc(C(=O)Cc2ccccc2)cc1 [compound 52] | 25.5 |
| CCc1ccc(C(=O)C(=O)c2ccccc2)cc1 [compound 55] | 29 |
| CCCCCCc1ccc(C(=O)C(=O)c2ccccc2)cc1 [compound 56] | 14.9 |
| COc1ccc(C(=O)Cc2ccccc2)cc1 [compound 57] | 16.1 |
| CCCOc1ccc(C(=O)Cc2ccccc2)cc1 [compound 58] | 15.3 |
| CCCCCOc1ccc(C(=O)Cc2ccccc2)cc1 [compound 59] | 20.7 |
| COc1ccc(C(=O)Cc2ccc(Cl)cc2)cc1 [compound 60] | 13.2 |
| CCCCOc1ccc(C(=O)Cc2ccc(Cl)cc2)cc1 [compound 61] | 16.7 |
| CCCCCCOc1ccc(C(=O)Cc2ccc(Cl)cc2)cc1 [compound 62] | 12.5 |
| CCCc1ccc(C(=O)c2ccc(Cl)cc2)cc1 [compound 63] | 11.8 |
| CCCCc1ccc(C(=O)c2ccc(Cl)cc2)cc1 [compound 64] | 21.4 |
| Cc1ccc(C(=O)c2ccccc2)cc1 [compound 65] | 17.3 |
| CCc1ccc(C(=O)c2ccccc2)cc1 [compound 66] | 34.4 |
| CC(C)Cc1ccc(C(=O)c2ccccc2)cc1 [compound 67] | 20 |
| CCCCCCCCCCc1ccc(C(=O)c2ccccc2)cc1 [compound 68] | 17.6 |
| CCCCCCCCCCCCc1ccc(C(=O)c2ccccc2)cc1 [compound 69] | 12 |
| CCCCCCCCCc1ccc(C(=O)c2ccccc2)cc1 [compound 70] | 23.2 |
| CCCCCCCCCCCc1ccc(C(=O)c2ccccc2)cc1 [compound 71] | 20 |
| Cc1ccc(C(=O)c2ccccc2)cc1C [compound 72] | 29.9 |
| COc1ccc(C(=O)c2ccccc2)c(OC)c1 [compound 74] | 30.2 |
| COc1ccc(OC)c(C(=O)c2ccccc2)c1 [compound 75] | 29.5 |
| COc1cc(OC)c(C(=O)c2ccccc2)c(OC)c1 [compound 76] | 15.7 |

These compounds were tested on thrombus (assay: Inhibiting effect on thrombosis (by-pass between left juglar vein and right carotid artery, silk thread)). Conditions: Rattus norvegicus, po, 5 h, read-out: Thrombosis inh.: thrombosis inhibition rate.
Assay type: in vivo, SD type male rates
Procedure: The inhibiting effects of the samples of the invention on thrombosis were tested by the following test method.
A 0.5 ml of 50 μ/ml of the heparin physiological saline was added through the polyethylene tube before the first blood circulation. After the blood circulation for 15 minutes, the circulation was stopped in the middle of the tubing at artery side with a pinch cock.
Then, 0.2 ml of the heparin physiological saline was added to remove the blood coagulates on the tubing wall and another new polyethylene tubing filled with the heparin solution and containing a piece of new silk thread was attached between the venous and artery tubing ends.
The blood circulation was reestablished by opening the pinch cock. After 15 minutes, the wet weight of thrombus on the silk thread was similarly measured.
In the same manner, the third circulation was performed and wet weight of thrombus measured.
The amount of thrombus was given by the equation A. [formula] Each sample was suspended in an aqueous solution of sodium carboxymethyl cellulose and the oral dose of the suspension (100 mg/kg) was performed at 5 hours before the first blood circulation.
The amount of thrombus after the oral dose of the sample was calculated in the same manner as that of control circulations.
The thrombosis inhibition rate was given by the equation B. [formula]

| SMILES | inhibition in vivo at 100 mg/kg [%] |
| --- | --- |
| O=C(C(=O)c1ccccc1)c1ccccc1 [compound 53] | 19.2 |
| Cc1ccc(C(=O)C(=O)c2ccccc2)cc1 [compound 54] | 20.3 |

Same assay, conditions: Rattus norvegicus; 100 mg/kg oral, 5 hours before first blood circulation, rats; read-out: Thrombosis inh.: thrombosis inhibition rate

| SMILES | inhibition in vivo at 100 mg/kg [%] |
| --- | --- |
| Cc1ccc(C(=O)Cc2ccccc2)cc1 [compound 48] | 18.3 |
| CCCc1ccc(C(=O)Cc2ccccc2)cc1 [compound 49] | 13.4 |
| CCCCCCCCCCc1ccc(C(=O)Cc2ccccc2)cc1 [compound 50] | 28.3 |
| CCCCCCCCCCCc1ccc(C(=O)Cc2ccccc2)cc1 [compound 51] | 13.5 |
| CCCCCCCCCCCCc1ccc(C(=O)Cc2ccccc2)cc1 [compound 52] | 10.1 |
| CCc1ccc(C(=O)C(=O)c2ccccc2)cc1 [compound 55] | 16.4 |
| CCCCCCc1ccc(C(=O)C(=O)c2ccccc2)cc1 [compound 56] | 15.1 |
| COc1ccc(C(=O)Cc2ccccc2)cc1 [compound 57] | 6.5 |
| CCCOc1ccc(C(=O)Cc2ccccc2)cc1 [compound 58] | 14.6 |
| CCCCCOc1ccc(C(=O)Cc2ccccc2)cc1 [compound 59] | 14.1 |
| COc1ccc(C(=O)Cc2ccc(Cl)cc2)cc1 [compound 60] | 12.3 |
| CCCCOc1ccc(C(=O)Cc2ccc(Cl)cc2)cc1 [compound 61] | 8.5 |
| CCCCCCOc1ccc(C(=O)Cc2ccc(Cl)cc2)cc1 [compound 62] | 7.8 |
| CCCc1ccc(C(=O)c2ccc(Cl)cc2)cc1 [compound 63] | 6.2 |
| CCCCc1ccc(C(=O)c2ccc(Cl)cc2)cc1 [compound 64] | 15.9 |
| Cc1ccc(C(=O)c2ccccc2)cc1 [compound 65] | 19.2 |
| CCc1ccc(C(=O)c2ccccc2)cc1 [compound 66] | 20.5 |
| CC(C)Cc1ccc(C(=O)c2ccccc2)cc1 [compound 67] | 17.3 |
| CCCCCCCCCCc1ccc(C(=O)c2ccccc2)cc1 [compound 68] | 20.3 |
| CCCCCCCCCCCCc1ccc(C(=O)c2ccccc2)cc1 [compound 69] | 12.7 |
| CCCCCCCCCc1ccc(C(=O)c2ccccc2)cc1 [compound 70] | 10 |
| CCCCCCCCCCCc1ccc(C(=O)c2ccccc2)cc1 [compound 71] | 11.4 |
| Cc1ccc(C(=O)c2ccccc2)cc1C [compound 72] | 30.2 |
| COc1ccc(C(=O)c2ccccc2)c(OC)c1 [compound 74] | 28.9 |
| COc1ccc(OC)c(C(=O)c2ccccc2)c1 [compound 75] | 29.2 |
| COc1cc(OC)c(C(=O)c2ccccc2)c(OC)c1 [compound 76] | 18.4 |

These compounds were tested on male mice (assay: Analgesic effect: painful stretchings following intraperitoneal 0.7% acetic acid). Conditions: Mus musculus, po, read-out: Analgesic: percentage diminition of times of painful stretching.
Procedure: Each sample was orally administered in the dosage of 100 mg/kg before injection of acetic acid.

| SMILES | inhibition in vivo at 100 mg/kg [%] |
| --- | --- |
| Cc1ccc(C(=O)Cc2ccccc2)cc1 [compound 48] | 12.5 |
| CCCc1ccc(C(=O)Cc2ccccc2)cc1 [compound 49] | 18.2 |
| CCCCCCCCCCc1ccc(C(=O)Cc2ccccc2)cc1 [compound 50] | 16.4 |
| CCCCCCCCCCCc1ccc(C(=O)Cc2ccccc2)cc1 [compound 51] | 18.3 |
| CCCCCCCCCCCCc1ccc(C(=O)Cc2ccccc2)cc1 [compound 52] | 12.5 |
| O=C(C(=O)c1ccccc1)c1ccccc1 [compound 53] | 14.2 |
| Cc1ccc(C(=O)C(=O)c2ccccc2)cc1 [compound 54] | 11.3 |
| CCc1ccc(C(=O)C(=O)c2ccccc2)cc1 [compound 55] | 15.8 |
| CCCCCCc1ccc(C(=O)C(=O)c2ccccc2)cc1 [compound 56] | 20.5 |
| COc1ccc(C(=O)Cc2ccccc2)cc1 [compound 57] | 10.3 |
| CCCOc1ccc(C(=O)Cc2ccccc2)cc1 [compound 58] | 19.8 |
| CCCCCOc1ccc(C(=O)Cc2ccccc2)cc1 [compound 59] | 22.8 |
| COc1ccc(C(=O)Cc2ccc(Cl)cc2)cc1 [compound 60] | 6.3 |
| CCCCOc1ccc(C(=O)Cc2ccc(Cl)cc2)cc1 [compound 61] | 15.1 |
| CCCCCCOc1ccc(C(=O)Cc2ccc(Cl)cc2)cc1 [compound 62] | 10.2 |
| CCCc1ccc(C(=O)c2ccc(Cl)cc2)cc1 [compound 63] | 8.2 |
| CCCCc1ccc(C(=O)c2ccc(Cl)cc2)cc1 [compound 64] | 6.6 |
| Cc1ccc(C(=O)c2ccccc2)cc1 [compound 65] | 10.9 |
| CCc1ccc(C(=O)c2ccccc2)cc1 [compound 66] | 15.7 |
| CC(C)Cc1ccc(C(=O)c2ccccc2)cc1 [compound 67] | 19.1 |
| CCCCCCCCCCc1ccc(C(=O)c2ccccc2)cc1 [compound 68] | 5.8 |
| CCCCCCCCCCCCc1ccc(C(=O)c2ccccc2)cc1 [compound 69] | 6.7 |
| CCCCCCCCCc1ccc(C(=O)c2ccccc2)cc1 [compound 70] | 7 |
| CCCCCCCCCCCc1ccc(C(=O)c2ccccc2)cc1 [compound 71] | 9.2 |
| Cc1ccc(C(=O)c2ccccc2)cc1C [compound 72] | 23.4 |
| COc1ccc(C(=O)c2ccccc2)c(OC)c1 [compound 74] | 24.2 |
| COc1ccc(OC)c(C(=O)c2ccccc2)c1 [compound 75] | 22 |
| COc1cc(OC)c(C(=O)c2ccccc2)c(OC)c1 [compound 76] | 13.9 |
